These results are taken from patent US20260250273A1, “CRYSTAL FORM OF COMPOUND, AND PHARMACEUTICAL COMPOSITION AND USE THEREOF” (SHENZHEN KEYE LIFE TECHNOLOGIES CO., LTD, priority 2023, published 2026).

Data set [1] in a line: Suspension competition experiment between anhydrous crystal form A and anhydrous crystal form C (XRPD). In kind it is physicochemical. Conditions: for Relative stability of crystal forms concluded from suspension competition: room temperature to 50 °C.
Data set [2] can be described thus: Hygroscopicity evaluation (DVS test, XRPD after DVS). The data set is classed as physicochemical. To be noted: for Sample weight change at 80% RH (%): DVS, 25 °C; for Whether crystal form changes before and after test: XRPD before and after DVS test; for Hygroscopicity: weight gain when humidity rises to 80% RH at 25 °C, Chinese Pharmacopoeia (2020 Edition).
Data set [3] in a line: High-temperature stability (HPLC purity, XRPD). The data set is classed as physicochemical. Conditions: 60 °C, 10 d; for Purity (Area %): HPLC, initial purity 99.55 (form A), 99.84 (form C).
A short description of data set [4]: Solid-form stability under long-term and accelerated conditions (HPLC purity, XRPD). The data set is classed as physicochemical. Conditions: 10 d; for Physical and chemical stability: 25 °C/60% RH and 40 °C/75% RH; for Purity (Area %): HPLC, initial purity 99.55 (form A), 99.84 (form C).
The nature of data set [5]: Heating experiment and variable temperature XRPD (VT-XRPD). In kind it is physicochemical. To be noted: heated to 120 °C.
Data set [6] can be described thus: Crystal form conversion of wet samples on air-drying at room temperature (XRPD). The data set is classed as physicochemical. To be noted: for Crystal form after air-drying: air-dried at room temperature for 1 d; for Stability of the crystal form: crystalline wet solid.
For data set [7], the target named is T1, DHX33 (Homo sapiens, UniProt Q9H6R0).
T1 sequence (Q9H6R0 1-707): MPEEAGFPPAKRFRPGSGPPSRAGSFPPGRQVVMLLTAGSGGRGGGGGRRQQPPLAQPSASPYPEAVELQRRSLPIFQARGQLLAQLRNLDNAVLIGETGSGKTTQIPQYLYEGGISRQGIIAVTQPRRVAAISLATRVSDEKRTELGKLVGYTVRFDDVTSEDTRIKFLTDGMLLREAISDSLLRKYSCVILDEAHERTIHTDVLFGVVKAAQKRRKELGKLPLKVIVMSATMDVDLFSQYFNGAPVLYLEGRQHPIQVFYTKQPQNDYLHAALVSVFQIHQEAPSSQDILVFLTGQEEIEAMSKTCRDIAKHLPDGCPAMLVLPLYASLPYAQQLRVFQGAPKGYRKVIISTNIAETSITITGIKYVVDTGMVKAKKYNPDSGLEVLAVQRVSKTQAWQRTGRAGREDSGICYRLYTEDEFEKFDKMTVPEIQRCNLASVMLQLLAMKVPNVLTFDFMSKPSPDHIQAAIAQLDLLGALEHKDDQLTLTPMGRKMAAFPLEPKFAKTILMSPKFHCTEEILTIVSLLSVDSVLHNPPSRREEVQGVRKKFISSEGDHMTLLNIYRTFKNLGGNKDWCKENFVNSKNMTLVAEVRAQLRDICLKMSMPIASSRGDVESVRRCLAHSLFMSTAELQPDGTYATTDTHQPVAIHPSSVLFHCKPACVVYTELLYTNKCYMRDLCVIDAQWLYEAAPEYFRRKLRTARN
Conditions: background statement, no data; cited from earlier work.

Setting [8] is: listed as anhydrous crystal form A.
Setting [9] is: listed as anhydrous crystal form C.

Take `COc1ccc2nc(NC(=O)c3cc(C)n(-c4sc(C)cc4C#N)c3C)[nH]c2c1`: the “Competition for 1 d (XPRD)” value in data set [1] (EtOH, 50 °C, saturated solution of Compound (1), resulting crystal form) is given as “crystal form B”. Further, the “Competition for 2 d (XPRD)” value in data set [1] (IPAc, RT, saturated solution of Compound (1), resulting crystal form) was “crystal form B”.
With `COc1ccc2nc(NC(=O)c3cc(C)n(-c4sc(C)cc4C#N)c3C)[nH]c2c1` (single isomer, unassigned) [Anhydrous crystal form A, 1-(3-cyano-5-methylthiophen-2-yl)-N-(6-methoxy-1H-benzo[d]imidazol-2-yl)-2,5-dimethyl-1H-pyrrole-3-carboxamide], the “Relative stability of crystal forms concluded from suspension competition” value in data set [1] was “more thermodynamically stable anhydrous form”. For the same compound, in data set [2], the “Sample weight change at 80% RH (%)” value turned out to be 3.24%; the “Whether crystal form changes before and after test” value is given as “No”; the Hygroscopicity entry is listed as “slight hygroscopicity”. Also, in data set [2] (setting [8]), the “Sample weight change at 80% RH (%)” value is listed as 3.24%; the “Whether crystal form changes before and after test” value is “no changes in crystal form”. Besides, in data set [3], the “Crystal form Change” value is listed as “No”; the “Physical and chemical stability” value was “good physical and chemical stability”; the “Purity (Area %)” value was 99.63 Area %. The “Physical and chemical stability” value in data set [4] was “good physical and chemical stability”. Further, in data set [4] (25 °C/60% RH), the “Crystal form Change” value is on record as “No” and the “Purity (Area %)” value was determined as 99.67 Area %. In data set [4] (40 °C/75% RH), the “Crystal form Change” value is “No” and the “Purity (Area %)” value is 99.60 Area %. In addition, the “Crystal form in VT-XRPD analysis” value in data set [5] (XRPD in situ, then cooled to room temperature) is on record as “crystal form remained unchanged”. Also, the “Crystal form in heating experiment” value in data set [5] (maintained for 5 min, cooled to room temperature) is on record as “crystal form remained unchanged”.
Consider `COc1ccc2nc(NC(=O)c3cc(C)n(-c4sc(C)cc4C#N)c3C)[nH]c2c1` [crystal form D, 1-(3-cyano-5-methylthiophen-2-yl)-N-(6-methoxy-1H-benzo[d]imidazol-2-yl)-2,5-dimethyl-1H-pyrrole-3-carboxamide], for which, in data set [6], the “Crystal form after air-drying” value was “converted into the anhydrous crystal form C” and the “Stability of the crystal form” value is given as “metastable form”.
In the case of `COc1ccc2nc(NC(=O)c3cc(C)n(-c4sc(C)cc4C#N)c3C)[nH]c2c1` (single isomer, unassigned) [Anhydrous crystal form C, 1-(3-cyano-5-methylthiophen-2-yl)-N-(6-methoxy-1H-benzo[d]imidazol-2-yl)-2,5-dimethyl-1H-pyrrole-3-carboxamide], the “Crystal form after air-drying” value in data set [6] was “converted into the anhydrous crystal form A”. Moreover, in data set [2], the “Sample weight change at 80% RH (%)” value was determined as 3.71%; the “Whether crystal form changes before and after test” value is listed as “No”; the Hygroscopicity entry is listed as “slight hygroscopicity”. In data set [2] (setting [9]), the “Sample weight change at 80% RH (%)” value amounted to 3.71%; the “Whether crystal form changes before and after test” value is given as “no changes in crystal form”. In data set [3], the “Crystal form Change” value was “No”; the “Physical and chemical stability” value is “good physical and chemical stability”; the “Purity (Area %)” value worked out at 99.86 Area %. Further, in data set [4], the “Physical and chemical stability” value was “good physical and chemical stability”. Also, in data set [4] (25 °C/60% RH), the “Crystal form Change” value was “No” and the “Purity (Area %)” value is given as 99.87 Area %. In data set [4] (40 °C/75% RH), the “Crystal form Change” value is given as “No” and the “Purity (Area %)” value is 99.90 Area %.
For the compound `COc1ccc2nc(NC(=O)c3cc(C)n(-c4sc(C)cc4C#N)c3C)[nH]c2c1` [crystal form B, 1-(3-cyano-5-methylthiophen-2-yl)-N-(6-methoxy-1H-benzo[d]imidazol-2-yl)-2,5-dimethyl-1H-pyrrole-3-carboxamide], in data set [6], the “Crystal form after air-drying” value was “converted into the anhydrous crystal form A” and the “Stability of the crystal form” value is reported as “metastable form”. Besides, in data set [1], the “Relative stability of crystal forms concluded from suspension competition” value is listed as “relatively more stable in the case of the wet sample”.
`COc1ccc2nc(NC(=O)c3cc(C)n(-c4sc(C)cc4C#N)c3C)[nH]c2c1` [compound of Formula (1), 1-(3-cyano-5-methylthiophen-2-yl)-N-(6-methoxy-1H-benzo[d]imidazol-2-yl)-2,5-dimethyl-1H-pyrrole-3-carboxamide]: the “Inhibiting the RNA helicase activity of DHX33” value in data set [7] is on record as “capable of inhibiting the RNA helicase activity of DHX33”.
